Like-named read-outs stand apart in the source and are kept apart here. Marks after values point to notes of the source that are not given here.
Assays:
[1] = Human plasma protein binding (ultracentrifugation or rapid equilibrium dialysis); format: in vitro ADME; settings: for fraction unbound / fraction unbound at 6 h: pH 7.4, read-out: fu (fraction unbound in plasma); for fraction unbound: neat human plasma, 37°C, concentration comparable to Caco-2 assay
Experimental: Binding was assessed using one of two methods: ultracentrifugation ([31]) using neat human plasma or rapid equilibrium dialysis (RED) using either neat or diluted plasma. […] To allow analysis with a single calibration curve, the total plasma and protein-free supernatant samples were ‘matrix-matched’ by taking aliquots of protein-free supernatant samples and adding to fresh tubes containing an equal volume of blank plasma, or taking aliquots of the total plasma samples and adding to fresh tubes containing an equal volume of Dulbecco’s phosphate-buffered saline (DPBS). In this way, the final composition of both the protein-free supernatant samples and the total plasma samples were ‘matched’ prior to the analysis against a common calibration curve prepared in a 1:1 mixture of human plasma and DPBS. All samples were then stored frozen at −80°C until analysis.
The holding plate was then placed on a plate shaker (set at 800 rpm; ThermoMixer C, Eppendorf) and maintained at 37°C under a 2% CO2 atmosphere. The dialysis was conducted for 6 h, assuming steady state was achieved by the end of this period ([32]). Samples were then removed from both the donor and dialysate chambers of each RED insert. […] Samples were matrix matched as described above (but using PBS buffer instead of DPBS) and stored at −80°C until analysis.
For the more lipophilic compounds with potential for very high binding, the RED method was used with diluted plasma to increase the chance of detecting concentrations in the dialysate samples. Diluted human plasma (10% v/v in pH 7.4 phosphate buffered saline) was spiked with each compound (at 10% of the concentration used for the Caco-2 experiment with neat plasma) and binding conducted as described above. The binding in neat plasma was then calculated by correcting for the dilution as described below.
For binding measurements in neat plasma by ultracentrifugation, the fraction unbound (fu) was calculated from the ratio of the average unbound concentration in protein free supernate (Cunbound) to the average total concentration in non-centrifuged plasma (Ctotal). The standard deviation (SD) for the fu value was calculated using the propagation of errors approach as described previously ([33]). For binding measurements using the RED method in neat plasma, fu was calculated from the ratio of the dialysate to total plasma concentration for each dialysis unit and the mean and SD calculated for replicate units (n = 3).
For RED binding assessments using 10% plasma, the fu − diluted for individual dialysis units was calculated in the same way as described above.

[2] = in vitro; settings: human; for Papp A→B: Caco-2, pH 7.4, Papp A-B; for Papp B→A: Caco-2, pH 7.4, Papp B-A
[3] = Caco-2 permeability assay with pH 7.4 buffer or human plasma in both chambers; settings: human; for efflux ratio: Caco-2, pH 7.4, Efflux ratio (B-A/A-B)
[4] = system: Caco-2 cell monolayer; test: as above; settings: for Permeability Classification: criteria of Table V; for Mass balance: both directions (where assessed) and both media
[5] = cited from earlier work
[6] = system: Caco-2 cell monolayer
[7] = Caco-2, pH 7.4, Papp A-B, buffer pH 7.4 in both chambers
[8] = Caco-2, pH 7.4, Papp B-A, buffer pH 7.4 in both chambers
[9] = buffer (HBSS/HEPES pH 7.4) in both chambers
[10] = human, values from the literature
[11] = RED with diluted human plasma (10% v/v), corrected for dilution, < values from LLOQ
[12] = Caco-2, pH 7.4, Papp A-B, human plasma in both chambers, corrected for fu in donor
[13] = Caco-2, pH 7.4, Papp B-A, human plasma in both chambers, corrected for fu in donor

| Compound | fraction unbound [1] | Papp A→B [3, 7] [×10⁻⁶ cm/s] | Papp B→A [3, 8] [×10⁻⁶ cm/s] | Mass balance A-B [4, 9] [%] | Permeability Classification ([4]; buffer pH 7.4) | Mass balance B-A ([4]; buffer pH 7.4 in both chambers) [%] | Mass balance A-B ([4]; human plasma in both chambers) | Mass balance B-A ([4]; human plasma in both chambers) | Permeability Classification ([4]; human plasma) | Human FA (fraction absorbed) [5, 10] [%] | Papp A→B [3, 12] [×10⁻⁶ cm/s] | also measured |
| --- | --- | --- | --- | --- | --- | --- | --- | --- | --- | --- | --- | --- |
| CCN(CC)Cc1cc(Nc2ccnc3cc(Cl)ccc23)ccc1O [Amodiaquine, amodiaquine] | 0.12 | 4.5 ± 0.12 | 7.1 ± 1.9 | 33 ± 1.7 | Intermediate | 93 ± 4.0 | 81 ± 6.1^b % | 88 ± 4.6% | High (Papp ≥ 8.15) | – | – | Papp A→B [2]: 90 ± 8.3 ×10⁻⁶ cm/s; Papp B→A [2]: 63 ± 9.6 ×10⁻⁶ cm/s; efflux ratio ([3]; buffer pH 7.4 in both chambers): 1.6 ± 0.43; efflux ratio ([3]; human plasma in both chambers): 0.7 ± 0.12 |
| CC(C)NCC(O)COc1ccc(CC(N)=O)cc1 (stereo not drawn) [Atenolol, atenolol] | – | – | – | – | – | – | – | – | – | 55 | – | – |
| O=C1C(O)=C([C@H]2CC[C@H](c3ccc(Cl)cc3)CC2)C(=O)c2ccccc21 [Atovaquone, atovaquone] | – | – | – | <10 | Low (Papp < 0.839) | <10 | 99 ± 1.2% | 97 ± 2.3% | High (Papp ≥ 8.15) | – | > 300 | fraction unbound at 6 h [1, 11]: < 0.0002; Papp ([3]; Caco-2, pH 7.4): > 300 ×10⁻⁶ cm/s; Papp B→A [3, 13]: > 300 ×10⁻⁶ cm/s; Mass balance A-B ([4]; buffer (HBSS/HEPES pH 7.4) in both chambers, listed as atovaquone): < 10%; Mass balance B-A ([4]; buffer pH 7.4 in both chambers, listed as atovaquone): < 10% |
| CCN(CC)CCCC(C)Nc1ccnc2cc(Cl)ccc12 (stereo not drawn) [Chloroquine, chloroquine] | – | – | – | – | High (Papp ≥ 4.90) | – | – | – | High (Papp ≥ 8.15) | – | – | Permeability Classification ([4]; buffer pH 7.4, listed as chloroquine): high; Permeability Classification ([4]; human plasma, listed as chloroquine): high |
| CN/C(=N/CCSCc1nc[nH]c1C)NC#N [Cimetidine, cimetidine] | 0.76 | 1.7 ± 0.45 | – | – | – | – | – | – | – | 64 | – | Papp A→B [2]: 1.9 ± 0.26 ×10⁻⁶ cm/s; Mass balance [4]: > 80% |
| CCCCN(CCCC)CCC(O)c1cc2c(Cl)cc(Cl)cc2c2cc(C(F)(F)F)ccc12 (stereo not drawn) [Halofantrine, halofantrine] | – | – | – | <10 | Low (Papp < 0.839) | <10 | 83 ± 7.6% | 87 ± 4.4% | High (Papp ≥ 8.15) | – | – | fraction unbound at 6 h [1, 11]: < 0.0001; Papp ([3]; Caco-2, pH 7.4): > 300 ×10⁻⁶ cm/s; Papp A→B ([3]; Caco-2, pH 7.4): > 300 ×10⁻⁶ cm/s; Papp B→A ([3]; Caco-2, pH 7.4): > 300 ×10⁻⁶ cm/s; Mass balance A-B ([4]; buffer (HBSS/HEPES pH 7.4) in both chambers, listed as halofantrine): < 10%; Mass balance B-A ([4]; buffer pH 7.4 in both chambers, listed as halofantrine): < 10% |
| OC(c1cc(C(F)(F)F)nc2c(C(F)(F)F)cccc12)C1CCCCN1 (stereo not drawn) [Mefloquine, mefloquine] | – | 2.1 ± 0.65 | 4.7 ± 0.35 | 15 ± 2.6 | Intermediate | 86 ± 6.7 | 70 ± 2.6^b % | 86 ± 3.1% | High (Papp ≥ 8.15) | – | – | fraction unbound at 6 h [1, 11]: 0.015; Papp A→B [2]: 180 ± 20 ×10⁻⁶ cm/s; Papp B→A [2]: 150 ± 10 ×10⁻⁶ cm/s; efflux ratio ([3]; buffer pH 7.4 in both chambers): 2.2 ± 0.7; efflux ratio ([3]; human plasma in both chambers): 0.83 ± 0.11; Mass balance A-B ([4]; human plasma in both chambers, listed as mefloquine): 60–70% |
| COCCc1ccc(OCC(O)CNC(C)C)cc1 (stereo not drawn) [Metoprolol, metoprolol] | 0.7 | 50 ± 6.1 | – | – | – | – | – | – | – | – | – | Papp A→B [2]: 57 ± 5.8 ×10⁻⁶ cm/s |
| CC(C)(C)NCc1cc(Nc2ccnc3cc(Cl)ccc23)c2c(c1O)CCCC2 [Naphthoquine, naphthoquine] | – | – | – | – | – | – | – | – | – | – | – | fu (fraction unbound in plasma) [1, 11]: 0.019 ^e; Efflux ratio (B-A/A-B) ([6]; Caco-2): 0.78 ± 0.12; Mass balance B-A ([6]; Caco-2): 94 ± 14%; Papp A-B ([6]; Caco-2): 230 ± 32^b 10^−6 cm/s; Papp B-A ([6]; Caco-2): 180 ± 10^b 10^−6 cm/s; Efflux ratio (B-A/A-B) ([6]; Caco-2, pH 7.4): 2.0 ± 1.3; Mass balance A-B ([6]; Caco-2, pH 7.4): 31 ± 7.2%; Mass balance B-A ([6]; Caco-2, pH 7.4): 70 ± 10%; Papp A-B ([6]; Caco-2, pH 7.4): 2.2 ± 1.3 10^−6 cm/s; Papp B-A ([6]; Caco-2, pH 7.4): 4.5 ± 1.4 10^−6 cm/s; Permeability Classification ([6]; Caco-2, pH 7.4): Intermediate |
| COc1ccc2cc([C@H](C)C(=O)O)ccc2c1 [Naproxen, naproxen] | – | – | – | – | – | – | – | – | – | 100 | – | – |
| CC(=O)Nc1ccc(O)cc1 [Paracetamol, paracetamol] | 0.86 | 32 ± 2.9 | – | 92 ± 3.8 | – | – | 92 ± 0.58% | – | – | 90 | 37 ± 4 | – |
| Clc1ccc2c(N3CCN(CCCN4CCN(c5ccnc6cc(Cl)ccc56)CC4)CC3)ccnc2c1 [Piperaquine, piperaquine] | – | – | – | <10 | Low (Papp < 0.839) | <10 | 100 ± 8.1% | 100 ± 5.8% | High (Papp ≥ 8.15) | – | > 300 | fraction unbound at 6 h [1, 11]: < 0.001; Papp ([3]; Caco-2, pH 7.4): > 300 ×10⁻⁶ cm/s; Papp B→A [3, 13]: > 300 ×10⁻⁶ cm/s; Mass balance A-B ([4]; buffer (HBSS/HEPES pH 7.4) in both chambers, listed as piperaquine): < 10%; Mass balance B-A ([4]; buffer pH 7.4 in both chambers, listed as piperaquine): < 10% |
| CC(C)NCC(O)COc1cccc2ccccc12 (stereo not drawn) [Propranolol, propranolol] | 0.25 | 58 ± 4.5 | 52 ± 4 | – | – | 97 ± 0.58 | – | 99 ± 2.3% | – | – | – | Increase in Papp using plasma compared to buffer ([6]; human, Caco-2, pH 7.4): 2-3 fold; Papp A→B [2]: 120 ± 35 ×10⁻⁶ cm/s; Papp B→A [2]: 110 ± 19 ×10⁻⁶ cm/s |
| CNC(=C[N+](=O)[O-])NCCSCc1ccc(CN(C)C)o1 [Ranitidine, ranitidine] | 0.92 | 0.99 ± 0.11 | – | 97 ± 11 | – | – | 92 ± 7.2% | – | – | 50 | 2.1 ± 0.058 | Mass balance [4]: > 80% |
| COC(=O)c1ccccc1-c1c2ccc(=N)cc-2oc2cc(N)ccc12 [Rhodamine 123, rhodamine 123] | 0.35 | 1.6 ± 0.32 | 9.7 ± 1.1 | 99 ± 11 | – | 99 ± 1.2 | 98 ± 1.5% | 92 ± 4.7% | – | – | 1.2 ± 0.058 | efflux ratio ([3]; buffer pH 7.4 in both chambers): 6.1 ± 1.4; efflux ratio ([3]; human plasma in both chambers): 12 ± 1.4; Papp B→A [3, 13]: 14 ± 1.5 ×10⁻⁶ cm/s |
| CC(C)(C)NC(=O)[C@@H]1C[C@@H]2CCCC[C@@H]2CN1C[C@@H](O)[C@H](Cc1ccccc1)NC(=O)[C@H](CC(N)=O)NC(=O)c1ccc2ccccc2n1 [Saquinavir] | 0.04 | 2.4 ± 1.4 | 34 ± 2.1 | 76 ± 0.58 | – | 60 ± 5.6 | 100 ± 7.2^b % | 110 ± 7.5^b % | – | – | 8.4 ± 2.5 | Papp B→A [3, 13]: 140 ± 42 ×10⁻⁶ cm/s |
| CC(C)(C)NCC(O)COc1ccc(NC(=O)NC2CCCCC2)cc1 (stereo not drawn) [Talinolol, talinolol] | 0.48 | – | – | – | – | – | – | – | – | – | – | – |
| OC[C@@H](O)[C@@H](O)[C@H](O)[C@H](O)CO [^14C-Mannitol, D-[1-^14C]-mannitol] | 0.83 | 0.29 ± 0.051 | 0.56 ± 0.026 | 99 ± 2.3 | – | 99 ± 1.7 | 96 ± 4.0% | 97 ± 5.2% | – | 26 | 0.31 ± 0.081 | efflux ratio ([3]; buffer pH 7.4 in both chambers): 1.9 ± 0.35; efflux ratio ([3]; human plasma in both chambers): 1.4 ± 0.37; Papp B→A [3, 13]: 0.43 ± 0.021 ×10⁻⁶ cm/s; Mass balance [4]: > 80% |
| lucifer yellow | – | – | – | – | – | – | – | – | – | – | – | fu (fraction unbound in plasma) ([1]; human, plasma): 0.51; Mass balance ([6]; Caco-2): > 80%; Mass balance A-B ([6]; Caco-2): 98 ± 4.7%; Papp A-B ([6]; Caco-2): 0.17 ± 0.069 10^−6 cm/s; Mass balance A-B ([6]; Caco-2, pH 7.4): 86 ± 6.7%; Papp A-B ([6]; Caco-2, pH 7.4): 0.21 ± 0.085 10^−6 cm/s; Human FA (fraction absorbed) ([5]; in vivo): 0% |

From paper PMC6156755, “Using Human Plasma as an Assay Medium in Caco-2 Studies Improves Mass Balance for Lipophilic Compounds” (Pharmaceutical Research, 2018)
